Assay results from patent US11413321B2, “Pharmaceutical composition for use in increasing hair, modifying scalp or skin, healing a wound, promoting osteogenesis, or modifying hair” (priority 2017, dated 2022).

Columns and labels:
Assay type in all cases: in vivo, Wistar rat
CD68-positive cells = assay: Immunohistological staining of rat dorsal skin after injection of fatty acids (CD68); settings: 1 mg fatty acid in 20 μL per location
Experimental: Next, representative fatty acids contained in milk were administered to a 12-week-old Wistar rat at a plurality of locations on the dorsal skin as in Example 1(2) above, and a change in tissues by the administration was observed after the tissues were subjected to immunohistological staining. More specifically, physiological saline was administered in an amount of 20 μL per location, an administration liquid containing 1 mg of a fatty acid was administered in an amount of 20 μL per location, and a change in CD68-positive macrophage stained images and PPAR-γ-positive cell images by the administration was observed. Samples of the Wistar rat were obtained by sampling administration sites (four weeks after administration and eight weeks after administration). FIGS. 10A to 10G show the results. […] At saturated fatty acid injection sites, infiltration of a large number of CD68-positive cells was observed, and fibrillization of normal tissues was observed. Therefore, in FIGS. 10B to 10D, a change in fat tissues was examined at a location which was closest to the administration site and where normal tissues were maintained (non-fibrillization location).

Cxcr4 = assay: Quantitative PCR of dorsal tissues after subcutaneous administration (Cxcr4); settings: 20 μL per location into rat dorsal part; vs control without administration; FIG. 15
Experimental: 3.) C—X—C motif chemokine receptor 4 (Cxcr4), Rattus norvegicus: mRNA 1,726 bp NM 022205.3 GI: 82617587 Next, a change in gene expression in tissues was examined. Three regions were set between the head and the tail of the dorsal part of a 12-week-old Wistar rat (male), and each region was divided between the left and the right of the backbone into two regions to set a total of six regions on the dorsal part. Milk or palmitic acid was injected in an amount of 20 μL per location at two locations in the vicinity of the center of each region. The distance between the two locations was 1 cm. The collected tissue fragments were frozen with liquid nitrogen, and stored at −80° C. […] Analysis of gene expression by quantitative PCR was performed in the following manner: Integrated DNA technologies, Inc (Skokie, Ill., USA) was requested to design and synthesize gene-specific primers and probes, and using PrimeTime Gene Expression Master Mix Reagent (Integrated DNA Technologies, Inc, Skokie, Ill., USA) and Rotor-Gene Q PCR Apparatus (QIAGEN GmbH, Hilden, Germany), PCR analysis was performed twice per gene per specimen to analyze the expression level of a target gene. […]

[1] = tested on: full-thickness skin defect; assay: Wound healing score, circular full-thickness skin defect on the dorsal part; settings: 20 μL administration liquid containing 1 mg of the fatty acid at each of four locations; FIG. 6C
Experimental: Formation of wounds: hair on the dorsal part of a 12-week-old Wistar rat was shaven with hair clippers, and a circular full-thickness skin defect with a diameter of 8 mm was produced on each of the left and right sides of the head and the left and right sides of the tail. The full-thickness skin defect was formed at four locations per body.
Administration of milk: 20 μL of milk was subcutaneously injected at each of four locations, namely upper, lower, left and right, in a place 4 mm away from the peripheral edge of the wound. As the milk, the commercially available bovine milk sterilized by heating (at 130 degrees for 2 seconds and 65 degrees for 30 minutes) as described in Example 1 was used.
Administration of fatty acid: As a fatty acid contained in the milk, sterile purified water (administration liquid) containing palmitic acid, stearic acid, myristic acid, linolenic acid, α-linoleic acid and oleic acid, respectively was administered. Here, the water was heated and administered for the saturated fatty acids, and the water was administered at room temperature for the unsaturated fatty acids. 20 μL of the administration liquid (containing 1 mg of the fatty acid) was subcutaneously administered at each of four locations, namely upper, lower, left and right, in a place 4 mm away from the peripheral edge of the wound.
Score 4: The reduction ratio of the area of the wound site is 70% or more.
Score 3: The reduction ratio of the area of the wound site is 50% or more and less than 70%.
Score 2: The reduction ratio of the area of the wound site is 20% or more and less than 50%.
Score 1: The reduction ratio of the area of the wound site is less than 20%.
The result was given as a ratio obtained by dividing the above score by the score for physiological saline.
Two tubes of 8 mL of commercially available milk sterilized at a low temperature (65 degrees for 30 minutes) were centrifuged by a centrifugal separator (2600 g×6 minutes), 2 mL of one fourth of the supernatant exclusive of a whip portion was collected from each tube, the two collected liquids were combined to obtain 4 mL of a liquid, and 4 mL of the resulting liquid was stirred, and used for experiments (hereinafter, the obtained sample is referred to as a “centrifuged sample”). The obtained centrifuged sample was administered to the wound site at a dosage of 20 μL per location in the same manner as described above. The results are shown in “Centrifuged Sample” in FIG. 6A.
Next, a wound healing-promoting effect of lactoferrin was examined. As lactoferrin, Nice rim essence 62971 (trade name) purchased from Lion Corporation was used and administered at one location in an amount of 20 μg or 60 μg in the same manner as described above. Specifically, the lactoferrin was ground, and then thoroughly dissolved in purified water. The lactoferrin concentration was adjusted so that an injection amount of 20 μL included the above administration amount. The result was given as a value obtained by dividing each of scores after seven days and after ten days by the score for the physiological saline administration group.

CCCCCCCCCCCCCCCC(=O)O [palmitic acid]
number of CD68-positive cells at the administration site (CD68-positive cells; eight weeks after administration): maintained
number of CD68-positive cells at the administration site (CD68-positive cells; four weeks after administration, vs physiological saline): increased
expression level of Cxcr4 in tissues (Cxcr4): greatly increased
wound healing-promoting effect (score divided by the score for physiological saline) [1]: high promoting effect
